# Source: patent publication EP0745595A1, “3-(3-Aryloxyphenyl)-1-(substituted methyl)-s-triazine-2,4,6-oxo or thiotrione herbicidal agents” (American Cyanamid Company, priority 1995, dated 1996)
# How the values were obtained:
# Type in all cases: in vivo
# [1] = system: ECHINOCHLOA CRUS-GALLI, (L) BEAU; assay: Postemergence herbicidal evaluation, ECHCG (Barnyardgrass); parameters: key to ECHCG rating / Herbicidal effect rating, ECHCG / ECHCG: 0-9 visual rating scale vs untreated control
# Protocol: (§1) In the tests, seedling plants are grown in jiffy flats for about two weeks. The test compounds are dispersed in 50/50 acetone/water mixtures containing 0.5% TWEEN®20, a polyoxyethylene sorbitan monolaurate surfactant of Atlas Chemical Industries, in sufficient quantities to provide the equivalent of about 0.125 kg to 0.500 kg per hectare of active compound when applied to the plants through a spray nozzle operating at 40 psi for a predetermined time. After spraying, the plants are placed on greenhouse benches and are cared for in the usual manner, commensurate with conventional greenhouse practices. From four to five weeks after treatment, the seedling plants are examined and rated according to the rating system set forth below. Where more than one test is involved for a given compound, the data are averaged.
# (§2) Plant species employed in these evaluations are reported by header abbreviation, common name and scientific name.
# (§3) Results of herbicide evaluation are expressed on a rating scale (0-9). The scale is based upon a visual observation of plant stand, vigor, malformation, size, chlorosis and overall plant appearance as compared with a control.
# [2] = system: AMBROSIA ARTEMISIIFOLIA, L.; assay: Postemergence herbicidal evaluation, AMBEL (Ragweed, Common)
# Protocol: as §1, with “in sufficient quantities to provide the equivalent of about 0.125 kg to 0.500 kg per hectare of active compound when applied” left out
# as §2, §3
# ZEA MAYS L. = assay: Postemergence herbicidal evaluation, ZEAMX (Corn, Field)
# Protocol: as §1, with “in sufficient quantities to provide the equivalent of about 0.125 kg to 0.500 kg per hectare of active compound when applied” left out
# as §2, §3
# CHENOPODIUM ALBUM, L. [3] = assay: Postemergence herbicidal evaluation, CHEAL (Lambsquarters, Common)
# Protocol: as §1, with “in sufficient quantities to provide the equivalent of about 0.125 kg to 0.500 kg per hectare of active compound when applied” left out
# as §2, §3
# CHENOPODIUM ALBUM, L. [4] = assay: Preemergence herbicidal evaluation, CHEAL (Lambsquarters, Common);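 also: higher means more injury with 8 approaching complete kill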
# From the text: as §3
# The preemergence herbicidal activity of the test compounds of the present invention is exemplified by the following tests in which the seeds of a variety of monocotyledonous and dicotyledonous plants are separately mixed with potting soil and planted on top of approximately one inch of soil in separate pint cups. […] The treated cups are then placed on greenhouse benches, watered and cared for in accordance with conventional greenhouse procedures. From four to five weeks after treatment, the tests are terminated and each cup is examined and rated according to the rating system provided in Example 40.
# The compounds evaluated are reported by compound number given in Example 40.
# IPOMOEA SPP. = assay: Postemergence herbicidal evaluation, IPOSS (Morningglory spp.)
# Protocol: as §1, with “in sufficient quantities to provide the equivalent of about 0.125 kg to 0.500 kg per hectare of active compound when applied” left out
# as §2, §3
# [5] = system: ABUTILON THEOPHRASTI, MEDIC.; assay: Postemergence herbicidal evaluation, ABUTH (Velvetleaf)
# Protocol: as §1, with “in sufficient quantities to provide the equivalent of about 0.125 kg to 0.500 kg per hectare of active compound when applied” left out
# as §2, §3
# [6] = system: SETARIA VIRIDIS, (L) BEAU; assay: Postemergence herbicidal evaluation, SETVI (Foxtail, Green); parameters: key to SETVI rating / Herbicidal effect rating, SETVI / SETVI: 0-9 visual rating scale vs untreated control
# Protocol: as §1, §2, §3
# [7] = system: GLYCINE MAX(L) MERR. CV. WILLIAMS; assay: Postemergence herbicidal evaluation, GLXMAW (Soybean, Williams); parameters: key to GLXMAW rating / Herbicidal effect rating, GLXMAW / GLXMAW: 0-9 visual rating scale vs untreated control
# Protocol: as §1, §2, §3
smiles,measurement,setting,value
"Cn1c(=O)[nH]c(=O)n(-c2cc(Oc3c(F)cc(C(F)(F)F)cc3Cl)ccc2Br)c1=O [A, reference compound]","Herbicidal effect rating, ECHCG",[1]; 0.063 kg/ha,0.0
same,"Herbicidal effect rating, ECHCG",[1]; 0.125 kg/ha,0.0
same,"Herbicidal effect rating, ECHCG",[1]; 0.250 kg/ha,2.0
same,"Herbicidal effect rating, ECHCG",[1]; 0.500 kg/ha,2.0
same,"Herbicidal effect rating, AMBEL",[2]; 0.063 kg/ha,1.0
same,"Herbicidal effect rating, AMBEL",[2]; 0.125 kg/ha,2.0
same,"Herbicidal effect rating, AMBEL",[2]; 0.500 kg/ha,5.0
same,"Herbicidal effect rating, ZEAMX",ZEA MAYS L.; 0.063 kg/ha,0.0
same,"Herbicidal effect rating, ZEAMX",ZEA MAYS L.; 0.125 kg/ha,0.0
same,"Herbicidal effect rating, ZEAMX",ZEA MAYS L.; 0.250 kg/ha,0.0
same,"Herbicidal effect rating, ZEAMX",ZEA MAYS L.; 0.500 kg/ha,2.0
same,"Herbicidal effect rating, CHEAL","CHENOPODIUM ALBUM, L. [3]; 0.063 kg/ha",9.0
same,"Herbicidal effect rating, CHEAL","CHENOPODIUM ALBUM, L. [3]; 0.125 kg/ha",9.0
same,"Herbicidal effect rating, CHEAL","CHENOPODIUM ALBUM, L. [3]; 0.250 kg/ha",9.0
same,"Herbicidal effect rating, CHEAL","CHENOPODIUM ALBUM, L. [3]; 0.500 kg/ha",9.0
same,CHEAL,"CHENOPODIUM ALBUM, L. [4]; Rate 0.063 kg/ha",9.0
same,CHEAL,"CHENOPODIUM ALBUM, L. [4]; Rate 0.125 kg/ha",9.0
same,CHEAL,"CHENOPODIUM ALBUM, L. [4]; Rate 0.250 kg/ha",9.0
same,CHEAL,"CHENOPODIUM ALBUM, L. [4]; Rate 0.500 kg/ha",9.0
same,"Herbicidal effect rating, IPOSS",IPOMOEA SPP.; 0.063 kg/ha,6.0
same,"Herbicidal effect rating, IPOSS",IPOMOEA SPP.; 0.125 kg/ha,7.0
same,"Herbicidal effect rating, IPOSS",IPOMOEA SPP.; 0.250 kg/ha,9.0
same,"Herbicidal effect rating, IPOSS",IPOMOEA SPP.; 0.500 kg/ha,9.0
same,"Herbicidal effect rating, ABUTH",[5]; 0.063 kg/ha,5.0
same,"Herbicidal effect rating, ABUTH",[5]; 0.125 kg/ha,6.0
same,"Herbicidal effect rating, ABUTH",[5]; 0.250 kg/ha,6.0
same,"Herbicidal effect rating, ABUTH",[5]; 0.500 kg/ha,9.0
same,"Herbicidal effect rating, SETVI",[6]; 0.063 kg/ha,0.0
same,"Herbicidal effect rating, SETVI",[6]; 0.125 kg/ha,2.0
same,"Herbicidal effect rating, SETVI",[6]; 0.250 kg/ha,2.0
same,"Herbicidal effect rating, SETVI",[6]; 0.500 kg/ha,5.0
same,"Herbicidal effect rating, GLXMAW",[7]; 0.063 kg/ha,2.0
same,"Herbicidal effect rating, GLXMAW",[7]; 0.125 kg/ha,3.0
same,"Herbicidal effect rating, GLXMAW",[7]; 0.250 kg/ha,3.0
same,"Herbicidal effect rating, GLXMAW",[7]; 0.500 kg/ha,5.0
